Results from patent US20160194380A1, “POTENT INHIBITORS OF HUMAN MATRIPTASE DERIVED FROM MCOTI-II VARIANTS” (MERCK PATENT GMBH, priority 2013, published 2016).
Where a SMILES comes first, the peptide text is derived from it. Bridges are numbered along the chain shown (N, C = ends).

Legend:
matriptase-1 = biological target: T1, matriptase-1 (Homo sapiens, UniProt Q9Y5Y6); conditions: literature; cited from earlier work
T1 sequence (Q9Y5Y6 1-855): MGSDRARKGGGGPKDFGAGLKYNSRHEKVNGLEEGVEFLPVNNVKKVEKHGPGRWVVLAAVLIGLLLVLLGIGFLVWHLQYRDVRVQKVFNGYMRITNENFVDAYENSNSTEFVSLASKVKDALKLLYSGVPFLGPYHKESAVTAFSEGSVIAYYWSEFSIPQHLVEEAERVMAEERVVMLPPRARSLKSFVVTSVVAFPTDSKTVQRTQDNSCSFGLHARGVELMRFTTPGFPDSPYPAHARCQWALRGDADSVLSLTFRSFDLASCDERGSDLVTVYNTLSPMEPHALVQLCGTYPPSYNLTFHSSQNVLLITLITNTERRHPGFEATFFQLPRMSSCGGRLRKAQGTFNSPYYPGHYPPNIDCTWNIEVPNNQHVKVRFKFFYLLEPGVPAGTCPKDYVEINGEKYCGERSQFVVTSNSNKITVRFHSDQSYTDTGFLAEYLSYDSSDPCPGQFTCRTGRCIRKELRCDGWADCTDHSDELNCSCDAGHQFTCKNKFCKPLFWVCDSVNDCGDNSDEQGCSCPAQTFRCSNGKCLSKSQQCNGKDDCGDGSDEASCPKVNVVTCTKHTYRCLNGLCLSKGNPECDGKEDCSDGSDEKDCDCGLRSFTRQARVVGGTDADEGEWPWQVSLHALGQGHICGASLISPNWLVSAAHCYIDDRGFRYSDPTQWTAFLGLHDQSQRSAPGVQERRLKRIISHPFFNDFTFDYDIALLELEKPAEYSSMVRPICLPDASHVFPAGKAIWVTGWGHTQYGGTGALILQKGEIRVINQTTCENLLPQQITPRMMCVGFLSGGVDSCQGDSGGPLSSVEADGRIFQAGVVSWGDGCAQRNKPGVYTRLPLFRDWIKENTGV

[1] = biological target: T2, Bovine pancreatic trypsin (Bos taurus, UniProt P00760); assay: Protease inhibition assay, trypsin; assay type: biochemical; conditions: substrate-independent inhibition constant
T2 construct: purchased Sigma-Aldrich; host or cells: bovine pancreas
T2 sequence (P00760 24-246): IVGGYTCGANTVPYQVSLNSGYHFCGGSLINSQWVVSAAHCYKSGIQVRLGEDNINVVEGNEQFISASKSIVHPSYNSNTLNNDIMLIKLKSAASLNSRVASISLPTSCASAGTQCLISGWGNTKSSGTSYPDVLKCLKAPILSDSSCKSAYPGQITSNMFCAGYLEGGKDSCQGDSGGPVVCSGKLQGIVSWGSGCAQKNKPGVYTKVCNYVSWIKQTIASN
Description: (§1) D: Biol. Crystallogr., 69(2013), 114-120; Reinwarth, ChemBioChem, 14(2013), 137-146; Boy, Mol. Imaging Biol. 12(2010), 377-385] Measurements were carried out in triplicates using a Tecan Genios ELISA reader.

Human matriptase-1 [2] = biological target: T3, Human matriptase-1 (Homo sapiens, UniProt Q9Y5Y6); assay: Protease inhibition assay, matriptase-1; assay type: biochemical; conditions: substrate-independent inhibition constant
T3 construct: made in house
T3 sequence (Q9Y5Y6 615-855 limits assumed): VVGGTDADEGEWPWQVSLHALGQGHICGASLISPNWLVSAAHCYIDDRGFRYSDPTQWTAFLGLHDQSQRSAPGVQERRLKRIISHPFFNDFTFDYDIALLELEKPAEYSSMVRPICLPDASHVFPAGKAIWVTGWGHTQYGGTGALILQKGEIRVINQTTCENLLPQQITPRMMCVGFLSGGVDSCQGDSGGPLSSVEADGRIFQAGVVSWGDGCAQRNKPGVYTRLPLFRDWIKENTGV
Description: as §1

[3] = tested on: pro-uPA activation by matriptase-1 on human prostate carcinoma cancer cells (PC-3); assay: Cell inhibition assay: inhibition of pro-uPA activation on PC-3 cells; assay type: cell-based; conditions: overnight incubation, read-out: IC50 (uPA substrate turnover, indirect determination)
Description: Urokinase-type plasminogen activator (uPA) causes the degradation of the extracellular matrix and plays a critical role in tumor invasion and metastasis.
Human prostate cancer cells (PC-3, Merck KGaA) were cultured in DMEM medium with 10% FCS at 37° C. and 5% CO2, washed with cation-free PBS and harvested by scraping. In the following 1×10^5 cells were incubated in presence of 250 μM Bz-β-Ala-Gly-Arg-pNA.AcOH (American Diagnostica) and the inhibitor of interest in defined dilutions overnight. Product formation was monitored at 405 nm before and after incubation in a microplate reader. IC50 was calculated by non-linear regression using SigmaPlot 11.

Human matriptase-1 [4] = assay: Protease inhibition assay, matriptase-1; assay type: biochemical; conditions: matriptase-1 versus trypsin
Description: as §1

| Molecule | Ki (matriptase-1), previously reported (matriptase-1) | Selectivity, previously reported (matriptase-1) | Ki [1] [nM] | Ki (Human matriptase-1 [2]) [nM] | IC50 [3] [nM] | Inhibitory activity for matriptase-1 relative to trypsin (Human matriptase-1 [4]) |
| --- | --- | --- | --- | --- | --- | --- |
| H-R-Q-A-R-Bt | picomolar | low selectivity | – | – | – | – |
| CC[C@H](C)[C@H](N)C(=O)NCC(=O)N[C@H](C(=O)N[C@H]1CSSC[C@@H]2NC(=O)[C@H](C)NC(=O)CNC(=O)[C@@H]3CCCN3C(=O)[C@@H]3CSSC[C@@H](C(=O)NCC(N)=O)NC(=O)[C@H](Cc4ccc(O)cc4)NC(=O)CNC(=O)[C@H](CC(N)=O)NC(=O)CNC(=O)[C@H](CCCNC(=N)N)NC(=O)[C@H](CSSC[C@H](NC(=O)[C@H](C)NC(=O)[C@H](CCCNC(=N)N)NC(=O)[C@H](CC(C)C)NC(=O)[C@H](CC(C)C)NC(=O)[C@H](CCCCN)NC(=O)[C@@H]4CCCN4C1=O)C(=O)N[C@@H](CCCNC(=N)N)C(=O)N[C@@H](CCCNC(=N)N)C(=O)N[C@@H](CC(=O)O)C(=O)N[C@@H](CO)C(=O)N[C@@H](CC(=O)O)C(=O)N3)NC(=O)[C@H]([C@@H](C)CC)NC2=O)C(C)C [Inhibitor 4] (H-IGVCPKLLRACRRDSDCPGACICRGNGYCG-NH2; disulfide 4-21, 11-23, 17-29) | – | – | 31.7 ± 4.3 | 4.4 ± 0.6 | – | – |
| CC[C@H](C)[C@@H]1NC(=O)[C@@H]2CSSC[C@H](NC(=O)[C@H](CCCNC(=N)N)NC(=O)[C@H](CCCNC(=N)N)NC(=O)[C@@H](N)CC(N)=O)C(=O)N3CCC[C@H]3C(=O)N[C@@H](CCCCN)C(=O)N[C@@H](C(C)C)C(=O)N[C@@H](CC(C)C)C(=O)N[C@@H](CCCCN)C(=O)N[C@@H](C)C(=O)N[C@H]3CSSC[C@H](NC1=O)C(=O)N[C@@H](CCCNC(=N)N)C(=O)NCC(=O)N[C@@H](CC(N)=O)C(=O)NCC(=O)N[C@@H](Cc1ccc(O)cc1)C(=O)N[C@H](C(=O)NCC(N)=O)CSSC[C@H](NC(=O)[C@H](CC(=O)O)NC(=O)[C@H](CO)NC(=O)[C@H](CC(=O)O)NC(=O)[C@H](CCCNC(=N)N)NC(=O)[C@H](CCCNC(=N)N)NC3=O)C(=O)N1CCC[C@H]1C(=O)NCC(=O)N[C@@H](C)C(=O)N2 [Inhibitor 5] | – | – | 19.2 ± 2.8 | 3.3 ± 0.4 | – | – |
| CC[C@H](C)[C@@H]1NC(=O)[C@@H]2CSSC[C@H](NC(=O)[C@@H](NC(=O)CNC(=O)[C@@H](N)Cc3c[nH]c4ccccc34)C(C)C)C(=O)N3CCC[C@H]3C(=O)N[C@@H](CCCCN)C(=O)N[C@@H](C(C)C)C(=O)N[C@@H](CC(C)C)C(=O)N[C@@H](CCCNC(=N)N)C(=O)N[C@@H](CC(N)=O)C(=O)N[C@H]3CSSC[C@H](NC1=O)C(=O)N[C@@H](CC(C)C)C(=O)NCC(=O)N[C@@H](CC(N)=O)C(=O)NCC(=O)N[C@@H](Cc1ccc(O)cc1)C(=O)N[C@H](C(=O)NCC(N)=O)CSSC[C@H](NC(=O)[C@H](CC(=O)O)NC(=O)[C@H](CO)NC(=O)[C@H](CC(=O)O)NC(=O)[C@H](CCCNC(=N)N)NC(=O)[C@H](CCCNC(=N)N)NC3=O)C(=O)N1CCC[C@H]1C(=O)NCC(=O)N[C@@H](C)C(=O)N2 [Inhibitor 7] (H-WGVCPKVLRNCRRDSDCPGACICLGNGYCG-NH2; disulfide 4-21, 11-23, 17-29; N-terminus assumed) | – | – | 35.8 ± 4.7 | 0.83 ± 0.14 | 213 | approximately fortyfold |
| CC[C@H](C)[C@@H]1NC(=O)[C@@H]2CSSC[C@H](NC(=O)[C@@H](NC(=O)CNC(=O)[C@@H](N)CCCCN)C(C)C)C(=O)N3CCC[C@H]3C(=O)N[C@@H](CCCCN)C(=O)N[C@@H](C(C)C)C(=O)N[C@@H](CC(C)C)C(=O)N[C@@H](CCCNC(=N)N)C(=O)N[C@@H](CCCCN)C(=O)N[C@H]3CSSC[C@H](NC1=O)C(=O)N[C@@H](CCCNC(=N)N)C(=O)N[C@@H](C)C(=O)N[C@@H](CC(N)=O)C(=O)NCC(=O)N[C@@H](Cc1ccc(O)cc1)C(=O)N[C@H](C(=O)NCC(N)=O)CSSC[C@H](NC(=O)[C@H](CC(=O)O)NC(=O)[C@H](CO)NC(=O)[C@H](CC(=O)O)NC(=O)[C@H](CCCCN)NC(=O)[C@H](CCCNC(=N)N)NC3=O)C(=O)N1CCC[C@H]1C(=O)NCC(=O)N[C@@H](C)C(=O)N2 [Inhibitor 6] (H-KGVCPKVLRKCRKDSDCPGACICRANGYCG-NH2; disulfide 4-21, 11-23, 17-29) | – | – | 22.3 ± 3 | 7.8 ± 1 | – | – |
